# Laboratory results taken from US20090203737A1, “Pyrrole Derivatives as Positive Allosteric Modulators of Metabotropic Receptors” (priority 2005, published 2009).
# Where “and” joins values, the source holds several entries; their conditions need not be identical. Equal entries are not always repeated.
# Key:
# [1] = target: T1, rat mGluR5 receptor (Rattus norvegicus, UniProt P31424); assay: mGluR5 assay on HEK-expressing rat mGluR5 (fluorescent cell based Ca2+ mobilization assay); conditions: HEK-293 cells stably expressing rat mGluR5; no co-addition of glutamate; mean of at least three independent experiments in duplicate; read-out: Ca++ Flux (mean EC50)
# T1 construct: expressed in transfected cells
# T1 sequence (P31424 21-1171 isoform P31424-2 limits assumed): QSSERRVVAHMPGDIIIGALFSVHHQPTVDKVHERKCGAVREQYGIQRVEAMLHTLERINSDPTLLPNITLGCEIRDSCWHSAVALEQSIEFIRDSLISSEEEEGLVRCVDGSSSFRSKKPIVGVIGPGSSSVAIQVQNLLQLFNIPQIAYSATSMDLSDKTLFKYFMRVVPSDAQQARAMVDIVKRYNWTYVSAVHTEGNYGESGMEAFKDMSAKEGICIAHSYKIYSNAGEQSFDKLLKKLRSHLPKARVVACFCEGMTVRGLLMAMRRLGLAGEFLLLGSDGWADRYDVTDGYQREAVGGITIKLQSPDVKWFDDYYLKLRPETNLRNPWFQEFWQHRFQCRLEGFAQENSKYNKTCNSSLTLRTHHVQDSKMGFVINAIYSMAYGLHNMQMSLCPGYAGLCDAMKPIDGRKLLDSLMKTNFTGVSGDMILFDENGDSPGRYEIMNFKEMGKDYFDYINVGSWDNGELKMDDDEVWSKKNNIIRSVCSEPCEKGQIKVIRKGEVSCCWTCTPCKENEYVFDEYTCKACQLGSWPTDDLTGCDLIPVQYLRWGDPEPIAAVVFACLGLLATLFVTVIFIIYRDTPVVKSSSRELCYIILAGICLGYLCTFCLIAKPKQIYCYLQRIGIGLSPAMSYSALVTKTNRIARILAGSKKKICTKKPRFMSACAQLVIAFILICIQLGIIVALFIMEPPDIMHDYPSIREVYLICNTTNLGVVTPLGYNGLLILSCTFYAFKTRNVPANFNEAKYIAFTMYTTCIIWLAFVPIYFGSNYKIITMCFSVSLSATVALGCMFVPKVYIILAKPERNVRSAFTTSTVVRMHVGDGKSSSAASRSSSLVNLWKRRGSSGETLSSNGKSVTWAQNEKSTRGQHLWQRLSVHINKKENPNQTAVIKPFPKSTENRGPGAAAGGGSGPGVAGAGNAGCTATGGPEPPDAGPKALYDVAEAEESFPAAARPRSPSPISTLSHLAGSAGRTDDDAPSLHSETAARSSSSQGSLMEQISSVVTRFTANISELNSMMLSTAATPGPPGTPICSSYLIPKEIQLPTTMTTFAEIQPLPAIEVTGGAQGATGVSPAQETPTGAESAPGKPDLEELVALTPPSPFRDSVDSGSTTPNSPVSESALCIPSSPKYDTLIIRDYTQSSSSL
# Method: Positive functional expression of HEK-293 cells stably expressing rat mGluR5 receptor was determined by measuring intracellular Ca^2+ changes using a Fluorometric Imaging Plate Reader (FLIPR, Molecular Devices, Sunnyvale, Calif.) in response to glutamate or selective known mGluR5 agonists and antagonists. Rat mGluR5 RT-PCR products in HEK-293 cells were sequenced and found 100% identical to rat mGluR5 Genbank reference sequence (NM_017012). HEK-293 cells expressing rmGluR5 were maintained in media containing DMEM, dialyzed Fetal Bovine Serum (10%), Glutamax™ (2 mM), Penicillin (100 units/ml), Streptomycin (100 μg/ml), Geneticin (100 μg/ml) and Hygromycin-B (40 μg/ml) at 37° C./5% CO2.
# After one day of incubation, cells were washed with assay buffer containing: 142 mM NaCl, 6 mM KCl, 1 mM […], 1 mM CaCl2, 20 mM HEPES, 1 g/L glucose, 0.125 mM sulfinpyrazone, pH 7.4. After 60 min of loading with 4 uM Fluo-4 (TefLabs, Austin, Tex.), the cells were washed three times with 50 μl of PBS Buffer and resuspended in 45 μl of assay Buffer. The plates were then transferred to a Fluorometric Imaging Plate Reader (FLIPR, Molecular Devices, Sunnyvale, Calif.) for the assessment of intracellular calcium flux. After monitoring the baseline fluorescence for 10 seconds, increasing concentrations of representative compound (from 0.01 to 60 μM) of the present invention diluted in Assay Buffer (15 μl of 4× dilutions) was added to the cell. The final DMSO concentration in the assay was 0.3%. In each experiment, fluorescence was then monitored as a function of time for 3 minutes and the data analyzed using Microsoft Excel and GraphPad Prism. Each data point was also measured two times.
# Under these experimental conditions, this HEK-rat mGluR5 cell line is able to directly detect positive allosteric modulators without the need of co-addition of glutamate or mGluR5 agonist.
# The concentration-response curves of representative compounds of the present invention were generated using the Prism GraphPad software (Graph Pad Inc, San Diego, USA). The curves were fitted to a four-parameter logistic equation:
# (Y=Bottom+(Top−Bottom)/(1+10̂((LogEC50−X)*Hill Slope)
# allowing determination of EC50 values.
# The Table 1 below represents the mean EC50 obtained from at least three independent experiments of selected molecules performed in duplicate.
SMILES,EC50 [1],melting point [°C]
"O=C(c1ccc(F)cc1)N1CCCC(c2noc(-c3ccc[nH]3)n2)C1 (stereo not shown) [Example 7, (4-Fluoro-phenyl)-{3-[5-(1H-pyrrol-2-yl)-[1,2,4]oxadiazol-3-yl]-piperidin-1-yl}-methanone]",< 1000 nM,158
"Cc1oncc1C(=O)N1CCC[C@H](c2nc(-c3cc4ccccc4[nH]3)no2)C1 [Example 19, {(S)-3-[3-(1H-Indol-2-yl)-[1,2,4]oxadiazol-5-yl]-piperidin-1-yl}-(5-methyl-isoxazol-4-yl)-methanone]",1000 to 10000 nM,163 to 164
"Cc1c[nH]c(-c2nc([C@H]3CCCN(C(=O)c4ccc(F)cc4)C3)no2)c1 [Example 27, (4-Fluoro-phenyl)-{(S)-3-[5-(4-methyl-1H-pyrrol-2-yl)-[1,2,4]oxadiazol-3-yl]-piperidin-1-yl}-methanone]",< 1000 nM,183
"O=C(c1ccc(F)nc1)N1CCC[C@H](c2noc(-c3cc(C(F)(F)F)c[nH]3)n2)C1 [Example 78, (6-Fluoro-pyridin-3-yl)-{(S)-3-[5-(4-trifluoromethyl-1H-pyrrol-2-yl)-[1,2,4]oxadiazol-3-yl]-piperidin-1-yl}-methanone]",,165.7
"O=C(c1ccc(F)c(F)c1)N1CCC[C@H](c2nc(-c3ncc[nH]3)no2)C1 [Example 25, (3,4-Difluoro-phenyl)-{(S)-3-[3-(1H-imidazol-2-yl)-[1,2,4]oxadiazol-5-yl]-piperidin-1-yl}-methanone]",1000 to 10000 nM,156 to 157
"O=C(c1ccc(F)cc1F)N1CCCC(c2noc(-c3ccc[nH]3)n2)C1 (stereo not shown) [Example 6, (2,4-Difluoro-phenyl)-{3-[5-(1H-pyrrol-2-yl)-[1,2,4]oxadiazol-3-yl]-piperidin-1-yl}-methanone]",< 1000 nM,151
"O=C(c1ccc(F)nc1)N1CCCC(c2noc(-c3ccc[nH]3)n2)C1 (stereo not shown) [Example 8, (6-Fluoro-pyridin-3-yl)-{3-[5-(1H-pyrrol-2-yl)-[1,2,4]oxadiazol-3-yl]-piperidin-1-yl}-methanone]",1000 to 10000 nM,143
"O=C(c1ccc(F)nc1)N1CCC[C@H](c2nc(-c3ccc[nH]3)no2)C1 [Example 4, (6-Fluoro-pyridin-3-yl)-{(S)-3-[3-(1H-pyrrol-2-yl)-[1,2,4]oxadiazol-5-yl]-piperidin 1-yl}-methanone]",1000 to 10000 nM,131 to 132
"O=C(c1ccc(F)c(F)c1)N1CCCC(c2noc(-c3ccc[nH]3)n2)C1 (stereo not shown) [Example 5, (3,4-Difluoro-phenyl)-{3-[5-(1H-pyrrol-2-yl)-[1,2,4]oxadiazol-3-yl]-piperidin-1-yl}-methanone]",< 1000 nM,177
"O=C(c1ccc(F)nc1)N1CCC[C@H](c2noc(-c3ccc[nH]3)n2)C1 [Example 21, (6-Fluoro-pyridin-3-yl)-{(S)-3-[5-(1H-pyrrol-2-yl)-[1,2,4]oxadiazol-3-yl]-piperidin-1-yl}-methanone]",< 1000 nM,147
"O=C(c1ccc(F)c(F)c1)N1CCC[C@H](c2nc(-c3cc(F)c[nH]3)no2)C1 [Example 51, (3,4-Difluoro-phenyl)-{(S)-3-[3-(4-fluoro-1H-pyrrol-2-yl)-[1,2,4]oxadiazol-5-yl]-piperidin-1-yl}-methanone]",< 1000 nM,147.5 to 148.2
"O=C(c1ccc(F)cc1)N1CCCC(F)(c2nc(-c3ccc[nH]3)no2)C1 (stereo not shown) [Example 47, (4-Fluoro-phenyl)-{3-fluoro-3-[3-(1H-pyrrol-2-yl)-[1,2,4]oxadiazol-5-yl]-piperidin-1-yl}-methanone]",1000 to 10000 nM,114.8 to 118
"O=C(c1ccc(F)cc1)N1CCC[C@H](c2noc(-c3cc([N+](=O)[O-])c[nH]3)n2)C1 [Example 36, (4-Fluoro-phenyl)-{(S)-3-[5-(4-nitro-1H-pyrrol-2-yl)-[1,2,4]oxadiazol-3-yl]-piperidin-1-yl}-methanone]",< 1000 nM,157 to 158
"O=C(c1ccc(F)cc1)N1CCC(c2nc(-c3ccc[nH]3)no2)C1 (stereo not shown) [Example 57, (4-Fluoro-phenyl)-{3-[3-(1H-pyrrol-2-yl)-[1,2,4]oxadiazol-5-yl]-pyrrolidin-1-yl}-methanone]",1000 to 10000 nM,
"Cc1oncc1C(=O)N1CCC[C@H](c2nc(-c3cc(Cl)c[nH]3)no2)C1 [Example 68, {(S)-3-[3-(4-Chloro-1H-pyrrol-2-yl)-[1,2,4]oxadiazol-5-yl]-piperidin-1-yl}-(5-methyl-isoxazol-4-yl)-methanone]",1000 to 10000 nM,
"O=C(c1ccc(F)nc1)N1CCC[C@H](c2noc(-c3cc(Br)c[nH]3)n2)C1 [Example 44, {(S)-3-[5-(4-Bromo-1H-pyrrol-2-yl)-[1,2,4]oxadiazol-3-yl]-piperidin-1-yl}-(6-fluoro-pyridin-3-yl)-methanone]",< 1000 nM and > 10000 nM,
"Cc1ccc(-c2nc([C@H]3CCCN(C(=O)c4ccc(F)cc4)C3)no2)[nH]1 [Example 38, (4-Fluoro-phenyl)-{(S)-3-[5-(5-methyl-1H-pyrrol-2-yl)-[1,2,4]oxadiazol-3-yl]-piperidin-1-yl}-methanone]",1000 to 10000 nM,
"Cc1c[nH]c(-c2nc([C@H]3CCCN(C(=O)c4ccncc4F)C3)no2)c1 [Example 58, (3-Fluoro-pyridin-4-yl)-{(S)-3-[5-(4-methyl-1H-pyrrol-2-yl)-[1,2,4]oxadiazol-3-yl]-piperidin-1-yl}-methanone]",< 1000 nM,
"O=C(c1ccncc1F)N1CCC[C@H](c2nc(-c3cc(Cl)c[nH]3)no2)C1 [Example 67, {(S)-3-[3-(4-Chloro-1H-pyrrol-2-yl)-[1,2,4]oxadiazol-5-yl]-piperidin-1-yl}-(3-fluoro-pyridin-4-yl)-methanone]",1000 to 10000 nM,
"O=C(c1ccc(F)cc1F)N1CCC[C@H](c2nc(-c3ccc[nH]3)no2)C1 [Example 2, (2,4-Difluoro-phenyl)-((S)-3-[3-(1H-pyrrol-2-yl)-[1,2,4]oxadiazol-5-yl]-piperidin-1-yl)-methanone]",< 1000 nM,
"O=C(c1ccncc1F)N1CCC[C@H](c2nc(-c3cc(Br)c[nH]3)no2)C1 [Example 69, {(S)-3-[3-(4-Bromo-1h-pyrrol-2-yl)-[1,2,4]oxadiazol-5-yl]-piperidin-1-yl}-(3-fluoro-pyridin-4-yl)-methanone]",1000 to 10000 nM,
"O=C(c1ccc(F)c(F)c1)N1CCCC(c2noc(-c3ccn[nH]3)n2)C1 (stereo not shown) [Example 14, (3,4-Difluoro-phenyl)-{3-[5-(2H-pyrazol-3-yl)-[1,2,4]oxadiazol-3-yl]-piperidin-1-yl}-methanone]",> 10000 nM,
"Cc1c[nH]c(-c2nc([C@H]3CCCN(C(=O)c4ccnc(F)c4)C3)no2)c1 [Example 30, (2-Fluoro-pyridin-4-yl)-{(S)-3-[5-(4-methyl-1H-pyrrol-2-yl)-[1,2,4]oxadiazol-3-yl]-piperidin-1-yl}-methanone]",< 1000 nM,
"O=C(c1ccc(F)nc1)N1CCC[C@H](c2noc(-c3cc(Cl)c[nH]3)n2)C1 [Example 40, {(S)-3-[5-(4-Chloro-1H-pyrrol-2-yl)-[1,2,4]oxadiazol-3-yl]-piperidin-1-yl}-(6-fluoro-pyridin-3-yl)-methanone]",< 1000 nM,
"O=C(c1ccc(F)nc1)N1CCC[C@H](c2nc(-c3cc(F)c[nH]3)no2)C1 [Example 52, (6-Fluoro-pyridin-3-yl)-{(S)-3-[3-(4-fluoro-1H-pyrrol-2-yl)-[1,2,4]oxadiazol-5-yl]-piperidin-1-yl}-methanone]",< 1000 nM,
"O=C(c1ccc(F)cc1F)N1CCC[C@H](c2nc(-c3cc4ccccc4[nH]3)no2)C1 [Example 12, (2,4-Difluoro-phenyl)-{(S)-3-[3-(1H-indol-2-yl)-[1,2,4]oxadiazol-5-yl]-piperidin-1-yl}-methanone]",1000 to 10000 nM,
"O=C(c1ccc(F)cc1)N1CCCC(c2noc(-c3ccn[nH]3)n2)C1 (stereo not shown) [Example 13, (4-Fluoro-phenyl)-{3-[5-(2H-pyrazol-3-yl)-[1,2,4]oxadiazol-3-yl]-piperidin-1-yl}-methanone]",> 10000 nM,
"O=C(c1ccc(F)nc1)N1CCC[C@H](c2nc(-c3cc(Br)c[nH]3)no2)C1 [Example 46, {(S)-3-[3-(4-Bromo-1H-pyrrol-2-yl)-[1,2,4]oxadiazol-5-yl]-piperidin-1-yl}-(6-fluoro-pyridin-3-yl)-methanone]",< 1000 nM,
